Laboratory results: patent US20100004125A1 (priority 2007, published 2010)
Like-named read-outs stand apart in the source and are kept apart here.

Test system: Pyricularia oryzae
Type: cell-based

Row | SMILES | Efficacy (%) (single compound, Conc 2 ppm, micro titer plate, 405 nm, 7 days after inoculation) | Efficacy (%)
1 | CC1(C)CC/C(=C\c2ccc(Cl)cc2)C1(O)Cn1cncn1 (single isomer, unassigned; (+)) [Triticonazol, (+) E-5-(4-chlorobenzylidene)-2,2-dimethyl-1-(1H-1,2,4-triazol-1-ylmethyl)cyclopentanol] | 44 | 
2 | CN/C(=N\[N+](=O)[O-])NCc1cnc(Cl)s1 [Chlothianidin, (E)-1-(2-chloro-1,3-thiazol-5-ylmethyl)-3-methyl-2-nitroguanidine] |  | 8
